Counter-ions that a name gives are not always drawn. Each block holds one compound with its values, some of them ahead of it.
What was measured:
HeLa = test: Cell viability after 48-hr treatment (Table 1); format: cell-based, human; conditions: Homo sapiens, HeLa; 48-hr treatment; XTT assay; read-out: IC50, HeLa
Method: (§1) Cell viability was assayed using CellTiter 960 AQueous One Solution Reagent (Promega, Madison, Wis.). Cells seeded at the concentration of 1,000 cells/well for HeLa, 5,000 cells/well for ES2 and HCT116 and 10,000-20,000 cells/well for other cell lines in 100 μL medium in 96-well plate were treated with RA series compounds at specified concentrations. […]

OVCAR3 = test: Cell viability after 48-hr treatment (Table 1); format: cell-based, human; conditions: Homo sapiens, OVCAR-3, XTT assay
Method: as §1

HT3 = test: Cell viability after 48-hr treatment (Table 1); format: cell-based; conditions: Homo sapiens, HT-3; 48-hr treatment; XTT assay; read-out: IC50, HT3
Method: (§2) Cells seeded at the concentration of 1,000 cells/well for HeLa, 5,000 cells/well for ES2 and HCT116 and 10,000-20,000 cells/well for other cell lines in 100 μL medium in 96-well plate were treated with RA series compounds at specified concentrations. […]

HaCaT = test: Cell viability after 48-hr treatment (Table 1); format: cell-based; conditions: Homo sapiens, HaCaT; 48-hr treatment; XTT assay; read-out: IC50, HaCaT
Method: as §2

RPMI8226 = test: Cell viability after 48-hr treatment (Table 1); format: cell-based; conditions: Homo sapiens, RPMI-8226, XTT assay
Method: as §2

SiHa = test: Cell viability after 48-hr treatment (Table 1); format: cell-based; conditions: Homo sapiens, SiHa; 48-hr treatment; XTT assay; read-out: IC50, SiHa
Method: as §2

NCl-H929 = test: Cell viability after 48-hr treatment (Table 1); format: cell-based, human; conditions: Homo sapiens, XTT assay
Method: as §2

FaDu = test: Cell viability after 48-hr treatment (Table 1); format: cell-based; conditions: Homo sapiens, FaDu; 48-hr treatment; XTT assay; read-out: IC50, FaDu
Method: as §1

MM.1S = test: Cell viability after 48-hr treatment (Table 1); format: cell-based; conditions: Homo sapiens, MM1.S, XTT assay
Method: as §1

SKOV3 = test: Cell viability after 48-hr treatment (Table 1); format: cell-based; conditions: Homo sapiens, SK-OV-3; 48-hr treatment; XTT assay; read-out: IC50, SKOV3
Method: as §1

C33A = test: Cell viability after 48-hr treatment (Table 1); format: cell-based; conditions: Homo sapiens, C-33-A; 48-hr treatment; XTT assay; read-out: IC50, C33A
Method: as §1

CasKi = test: Cell viability after 48-hr treatment (Table 1); format: cell-based; conditions: Homo sapiens, Ca-Ski; 48-hr treatment; XTT assay; read-out: IC50, CasKi
Method: (§3) Cell viability was assayed using CellTiter 960 AQueous One Solution Reagent (Promega, Madison, Wis.). Cells seeded at the concentration of 1,000 cells/well for HeLa, 5,000 cells/well for ES2 and HCT116 and 10,000-20,000 cells/well for other cell lines in 100 μL medium in 96-well plate were treated with RA series compounds at specified concentrations. After the indicated periods, cells were incubated according to the manufacturer's protocol with the MTS labeling mixture for 1-2 hr and absorbance at 490 nm measured using a Benchmark Plus microplate spectrophotometer (BIO-RAD).

HOK-16B = test: Cell viability after 48-hr treatment (Table 1); format: cell-based; conditions: 48-hr treatment; XTT assay; read-out: IC50, HOK-16B
Method: as §3

purified 20S proteasomes = purified 20S proteasomes (Homo sapiens, UniProt P28072+P28074+Q99436); test: 20S proteolytic activity assay; format: biochemical; conditions: 1 μM, 30 min
Method: Actin was used as a loading control. […] In FIG. 9C-E, purified 20S proteasomes were treated for 30 min with or without compounds (1 μM) prior to the addition of the specific fluorogenic substrate for chymotryptic (9C), tryptic (9D) or PGPH (9E) hydrolytic proteasome capacities. […] DMSO was added to all samples to a final concentration of 0.1% (upper panel). The effect of DMSO is highlighted by including ubiquitin—AMC (0.5 μM) hydrolysis with 2 nM UCH37 lacking DMSO (orange, bottom panel). In FIG. 9H, purified 19S RP (500 nM) in buffer was treated with corresponding compounds 30 min at 37° C. and AMC cleavage was measured with a fluorometer for 20 min. Ubal was used as a positive control.
Release of free AMC by the enzyme reaction was determined by measuring its fluorescence at 380 nm (excitation) and 440 nm (emission). The graphs shown are representative of at least three independent determinations and each data point is the mean of ±SD of triplicate determinations.
20S proteasome cleaves the chymotryptic substrate and releases fluorescent AMC.

HeLa cells [1] = test: Cell surface HSP90 staining; format: cell-based, human; conditions: 24 hr
Source text: Cell surface HSP90 was detected by staining with purified anti-HSP90 mAb (Stressgen), followed by PE-conjugated anti-mouse IgG1. The data were acquired with a FACSCalibur and analyzed using CellQuest software.

[2] = Complete blood counts and blood chemistry of C57BL/6 mice carrying TC-1 tumor; conditions: C57BL/6 mice with TC-1 tumor; nine doses every third day: RA190 40 mg/kg p.o., Bortezomib 1.5 mg/kg i.p.; mean ± SD, n = 3;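 note: blood drawn from the heart after euthanasia, cell counts read on an automated hemocytometer, heparinized plasma analyzed on an automated clinical chemistry analyzer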
ES-2 = test: Cell viability after 48-hr treatment (Table 1); format: cell-based, human; conditions: Homo sapiens, ES-2, XTT assay
Method: as §2

4UbFL reporter = test: Proteasome inhibition in vivo (4UbFL reporter bioluminescence); conditions: i.m. electroporated 4UbFL; RA190 40 mg/kg i.p., bortezomib 1.5 mg/kg i.p.
Method: After the indicated time points of treatment, bioluminescence was measured by injection of luciferin and imaging with an IVIS 200 (fold change±SD, *p<0.05, **p<0.01).
Two hours after gene gun delivery of the plasmid or one day post electroporation, mice were injected i.p. with 100 uL of luciferin (3 mg/mL) and anesthetized with isoflurane and optical imaging was performed for basal level luciferase expression. Images were acquired for 10 min with a Xenogen IVIS 200 (Caliper, Hopkinton, Mass.). Equally sized areas were analyzed using Living Image 2.20 software.

MM and HeLa cells = test: Annexin-V flow cytometry; format: cell-based; conditions: 12 hr after treating
Method: Activation of ICE family members such as caspase-3 and -7 results in cleavage of poly ADP ribose polymerase (PARP) to 85 kDa and 25 kDa fragments and drives apoptosis.
Induction of apoptosis was determined using Annexin V-PE Apoptosis Detection Kit I (BD Pharmingen, San Diego, Calif.) according to the manufacturer's protocol.

HeLa cells [3] = test: Drug combination index assay; format: cell-based, human; conditions: Homo sapiens, 48 hr, read-out: IC50 (single agent, Compusyn)
Method: The combination indices and a normalized isobologram were calculated using Compusyn software (www.combosyn.com).

NCI-H929 cells = test: Active caspase-3 by FACS; format: cell-based, human; conditions: 0.5 μM, 8 h
Method: NCI-H929 cells were treated with RA195 (0.5 μM) and Bz(0.5 μM) for the period of 8 h. Cells were stained for PE-conjugated Caspase-3 antibody and measured active caspase-3 by FACS.

U266 cells = test: Active caspase-3 by FACS; format: cell-based; conditions: 0.5 μM, 8 h
Method: U266 cells were treated with RA195 (0.5 μM) and Bz(0.5 μM) for the period of 8 h. Cells were stained for PE-conjugated Caspase-3 antibody and measured active caspase-3 by FACS.

cancer cells = test: Antiproliferative activity against cancer cells (design rationale); format: cell-based
Source text: We used Chloro and Nitro functional groups as substituent's on the aromatic ring due to their greater electron withdrawing effect at ortho (or) para (or) meta (or) both positions along with different amino acid linkages on bis-benzylidine piperidone moiety. Amino acids were chosen based in their physical characteristics like very hydrophobic (phenylalanine), strongly basic and hydrophilic (lysine), basic and hydrophilic (histidine) and amphiphilic (glycine). Commercially available Fmoc and Boc protected amino acids were used in the synthesis, and they were evaluated for their antiproliferatory activity against cancer cells.
Next we synthesized another set of compounds by converting free amine functionality to its Acetate (Ac), Acrolyl (Acr) and Benzoyl […] analogs as these units are part of many anticancer drugs because of their smaller size and feasibility to form inter molecular hydrogen bonds with proteins.
In the RA195 molecule two amino functionalities of lysine can provide more flexibility to make better analogs.

IC50 (HeLa): 170 nM
IC50 (OVCAR3): 2000 nM
IC50 (RPMI8226): 150 nM
IC50 (NCl-H929): 75 nM
IC50 (MM.1S): 50 nM
IC50 (SKOV3): > 2500 nM
Structure (SMILES): CC(=O)N[C@@H](Cc1ccccc1)C(=O)N1C/C(=C\c2ccc(Cl)c(Cl)c2)C(=O)/C(=C/c2ccc(Cl)c(Cl)c2)C1 [RA190Ac, 3,5-bis(3,4-dichlorobenzylidene)-1-(N-(1-oxo-S-3-phenyl-1-propan-2-yl)acetamide)-piperidin-4-one-HCl salt]
IC50 (HT3): > 5000 nM
IC50 (HaCaT): > 2500 nM
IC50 (SiHa): 1000 nM
IC50 (FaDu): > 2500 nM
IC50 (C33A): > 5000 nM
IC50 (CasKi): 300 nM
IC50 (HOK-16B): 750 nM

IC50 (HeLa): 30 nM
IC50 (OVCAR3): < 2500 nM
IC50 (RPMI8226): 10 nM
chymotryptic activity of the 20S proteasome (Suc-LLVY-AMC) (purified 20S proteasomes): inhibits
ALBNEW (Albumin) [2]: 2.50 ± 0.10
ALPNEW (Alkaline Phosphatase) [2]: 49 ± 5.29
ALTNEW (Alanine Aminotransferase) [2]: 26.33 ± 2.51
AMYL (Amylase) [2]: 473 ± 57.86
ASTNEW (Aspartate aminotransferase) [2]: 53 ± 18.52
BA(Basophils) [2]: 0.07 ± 0.06
BUNNEW (Blood Urea Nitrogen) [2]: 22.66 ± 5.13
CA (Calcium) [2]: 8.83 ± 0.60
CHOL (Cholesterol) [2]: 69 ± 7.93
CK_NEW (Creatinine Kinase) [2]: 93.66 ± 3.52
CREAT (Creatinine) [2]: 0.33 ± 0.05
EO (Eosinophils) [2]: 0.64 ± 0.48
GGTNEW (Gamma-Glutamyl Transferase) [2]: 5.00 ± 0.67
GLU (Glucose) [2]: 128 ± 20.29
HCT(Hematocrit) [2]: 42.36 ± 4.15
HDLNEW (High Density Lipoprotein) [2]: 28.33 ± 4.61
Hb (Hemoglobin) [2]: 11.3 ± 0.70
LDH (lactate Dehydrogenase) [2]: 245.33 ± 96
LY(Lymphocytes) [2]: 2.12 ± 1.83
MCHC (mean corpuscular hemoglobin concentration) [2]: 26.73 ± 1.16
MCV (Mean corpuscular Volume) [2]: 55.66 ± 1.72
MO(Monocytes) [2]: 0.20 ± 0.13
MPV (Mean Platelet Volume) [2]: 5.40 ± 0.10
NE(Neutrophils) [2]: 24.06 ± 15.07
PLT (Platelet) [2]: 1346 ± 87.5
RDW (Red Blood Cell Distribution Width) [2]: 20.13 ± 0.61
TBIL1 (Total bilirubin) [2]: 0.26 ± 0.05
TPROT (Total protein) [2]: 4.40 ± 0.26
TRIG (Triglycerides) [2]: 56.66 ± 15.88
UA (Uric Acid) [2]: 2.73 ± 0.87
WBC(White Blood Cells) [2]: 24.85 ± 23.94
IC50 (NCl-H929): 5 nM
IC50 (MM.1S): 5 nM
IC50 (SKOV3): < 2500 nM
IC50 (HeLa cells [3]): 21.7 nM
Structure (SMILES): CC(C)C[C@H](NC(=O)[C@H](Cc1ccccc1)NC(=O)c1cnccn1)B(O)O [Bortezomib, reference compound]
IC50 (HT3): < 2500 nM
IC50 (HaCaT): < 2500 nM
IC50 (SiHa): 1000 nM
cells with cell-surface HSP90 (HeLa cells [1]): 12.8%
IC50 (ES-2): 20 nM
IC50 (FaDu): < 2500 nM
IC50 (C33A): < 2500 nM
bioluminescence compared to vehicle alone, 4 hr after treatment (4UbFL reporter): 2 fold
increase in bioluminescence, one day post-treatment (4UbFL reporter): 4 fold
apoptosis (Annexin-V) (MM and HeLa cells): trigger extensive apoptosis
IC50 (CasKi): 50 nM
IC50 (HOK-16B): 20 nM

Structure (SMILES): Cl.N[C@@H](Cc1ccccc1)C(=O)N1C/C(=C\c2ccc([N+](=O)[O-])cc2)C(=O)/C(=C/c2ccc([N+](=O)[O-])cc2)C1 [RA183]
chymotryptic activity of the 20S proteasome (Suc-LLVY-AMC) (purified 20S proteasomes): do not
active caspase-3 (NCI-H929 cells): caused an increase in caspase-3 expression
active caspase-3 (U266 cells): caused an increase in caspase-3 expression
antiproliferative potency among analogs (cancer cells): higher potency

From patent US10500198B2, “Bis-benzylidine piperidone proteasome inhibitor with anticancer activity” (The Johns Hopkins University, priority 2013, dated 2019)
